US5079237A, “Inclusion complex of nicardipine or its hydrochloride with beta-cyclodextrin and a sustained release pharmaceutical preparation containing the same” (priority 1988, dated 1992)
Structures can show the parent of a compound that is named as a salt.

Experiments:
[1] = Differential scanning calorimetry: thermal stability (Example 4); type: physicochemical; conditions: DSC
Method: Nicardipine hydrochloride melts at 160° C., its thermal decomposition beginning at about 200° C. Beta-cyclodextrin contains combined water, which begins to separate off the sample already at about 40° C. The dehydratation of beta-cyclodextrin is completed at about 100° C. Anhydrous beta-cyclodextrin is stable up to 270° C., when thermal decomposition starts, which becomes intensive at 300° C. The behaviour of the inclusion complex of nicardipine hydrochloride with beta-cyclodextrin at the thermoanalytical assay is quite different. After the initial slight loss of weight at temperatures below 150° C., which can be attributed to the adsorbed moisture, the substance is stable up to about 220° C, when thermal decomposition sets in. […] The DSC scans of nicardipine hydrochloride, beta-cyclodextrin, the physical mixture of nicardipine hydrochloride and beta-cyclodextrin and of the inclusion complex of nicardipine hydrochloride with beta-cyclodextrin clearly indicate the formation of the inclusion complex of nicardipine hydrochloride with beta-cyclodextrin. Thus, the differential scanning calorimetry measurements are in accordance with the powder X-ray diffraction patterns.

[2] = known from DE patent 24 07 115; cited from earlier work
[3] = cited from earlier work
[4] = Solubility in water of nicardipine (hydrochloride), complexed and non-complexed (Example 3); type: physicochemical; conditions: room temperature, saturated solution
Method: Solubility in water Comparative solubility of nicardipine and its hydrochloride resp. alone and of its inclusion complex with beta-cyclodextrin. The concentrations of the dissolved nicardipine and its hydrochloride resp. at room temperature were determined in clear filtrates of the saturated solutions by liquid chromatography using the external standard method.

[5] = Dissolution rate in artificial biological fluids, Paddle Method, USP XXI (Example 5); type: physicochemical; conditions: for % dissolution: 37° C., mean of three tests
Method: Dissolution rates of the complexed and the non-complexed nicardipine and its hydrochloride
40 mg of nicardipine hydrochloride or the equivalent amount of […] of the inclusion complex of nicardipine with beta-cyclodextrin were used.
The dissolution tests were performed in artificial gastric juice of pH 1.2 and in artificial intestinal juices of pH 6.0, 6.5 and 7.4 at the temperature of 37° C.±0.5° C. The volume of the artificial biological fluids was 1000 ml. The rotation speed of the paddle mixer was 100 rpm. The quantities of the dissolved nicardipine hydrochloride in the test samples were determined spectrophotometrically (λmax =240 nm).

[6] = Acute toxicity (LD50) in mice after p.o. administration (Example 6); type: in vivo; conditions: mouse, in vivo, po; for mortality at 24 h: read-out: % of perished animals after 24 hrs; for mortality at 360 h: read-out: % of perished animals after 15 days; for LD50 at 360 h: mice, p.o., Litchfield-Wilcoxon, read-out: LD50 after 15 days
Method: (§1) In toxicological tests acute toxicities (LD50) of nicardipine hydrochloride and of its inclusion complex with beta-cyclodextrin were determined in mice and rats. The complex contained 26.8% of nicardipine hydrochloride.
(§2) Albino laboratory mice weighing 18 to 24 g and rats weighing 180 to 240 g of both sexes were used. Nicardipine hydrochloride was administered in the following doses:
(§3) The volume of the administered suspension was in mice 0.2 to 0.4 ml/20 g of body weight and in rats 0.8 to 2.4 ml/200 g of body weight.
(§4) The inclusion complex of nicardipine hydrochloride with beta-cyclodextrin was administered in the following doses:
(§5) mice: 18500 mg/kg of body weight, corresponding to
(§6) 4958 mg of nicardipine/kg of body weight;
(§7) The volume of the administered suspension was in mice 0.6 ml/20 g of body weight and in rats 1.2 to 4.4 ml/200 g of body weight. The animals were left without food for 18 hours before the administration. After the administration the animals were put under observation and the symptoms of poisoning or behaviour changes were recorded for another 15 days. During the tests the animals were given food and water ad libitum.
(§8) The results were statistically evaluated according to the Litchfield-Wilcoxon method (J. Pharmacol. Exp. Therap. 96, 99 (1949)).

mice = experiment: as above; type: in vivo; conditions: mice, p.o.; for LD50 after 15 days: Litchfield-Wilcoxon, 21600 min
Method: as §1, §2, §3, §4, §5, §6, §7, §8

[7] = Acute toxicity (LD50) in rats after p.o. administration (Example 6); type: in vivo; conditions: rat, in vivo, po; for mortality at 24 h: read-out: % of perished animals after 24 hrs; for mortality at 360 h: read-out: % of perished animals after 15 days; for LD50 at 360 h: rats, p.o., Litchfield-Wilcoxon, read-out: LD50 after 15 days
Method: as §1, §2, §3, §4
(§9) rats: 5000 mg/kg of body weight, corresponding to
(§10) 1340 mg of nicardipine/kg of body weight,
(§11) 11100 mg/kg of body weight, corresponding to
(§12) 2975 mg of nicardipine/kg of body weight,
(§13) 18500 mg/kg of body weight, corresponding to
(§14) 4958 mg of nicardipine/kg of body weight.
as §7, §8

rats = experiment: as above; type: in vivo; conditions: rats, p.o.; for LD50 after 15 days: Litchfield-Wilcoxon, 21600 min
Method: as §1, §2, §3, §4, §9, §10, §11, §12, §13, §14, §7, §8

[8] = 1500 mg/kg, mice F, 1500 mg/kg p.o.
[9] = 1500 mg/kg, mice M, 1500 mg/kg p.o.
[10] = 3000 mg/kg, mice F, 3000 mg/kg p.o.
[11] = 3000 mg/kg, mice M, 3000 mg/kg p.o.
[12] = 4000 mg/kg, mice F, 4000 mg/kg p.o.
[13] = 5000 mg/kg, mice F, 5000 mg/kg p.o.
[14] = 5000 mg/kg, mice M, 5000 mg/kg p.o.
[15] = 6000 mg/kg, mice F, 6000 mg/kg p.o.
[16] = 6000 mg/kg, mice M, 6000 mg/kg p.o.
[17] = 2000 mg/kg, rats M, 2000 mg/kg p.o.
[18] = 2500 mg/kg, rats M, 2500 mg/kg p.o.
[19] = 3000 mg/kg, rats F, 3000 mg/kg p.o.
[20] = 3500 mg/kg, rats M, 3500 mg/kg p.o.
[21] = 4000 mg/kg, rats F, 4000 mg/kg p.o.
[22] = 5000 mg/kg, rats F, 5000 mg/kg p.o.
[23] = 5000 mg/kg, rats M, 5000 mg/kg p.o.
[24] = 6000 mg/kg, rats F, 6000 mg/kg p.o.

SMILES: OC[C@H]1O[C@@H]2O[C@H]3[C@H](O)[C@@H](O)[C@@H](O[C@H]4[C@H](O)[C@@H](O)[C@@H](O[C@H]5[C@H](O)[C@@H](O)[C@@H](O[C@H]6[C@H](O)[C@@H](O)[C@@H](O[C@H]7[C@H](O)[C@@H](O)[C@@H](O[C@H]8[C@H](O)[C@@H](O)[C@@H](O[C@H]1[C@H](O)[C@H]2O)O[C@@H]8CO)O[C@@H]7CO)O[C@@H]6CO)O[C@@H]5CO)O[C@@H]4CO)O[C@@H]3CO [beta-cyclodextrin]
- onset of thermal decomposition (stable up to) [1]: 270 °C
- temperature at which thermal decomposition becomes intensive ([1]; anhydrous): 300 °C

SMILES: COC(=O)C1=C(C)NC(C)=C(C(=O)OCCN(C)Cc2ccccc2)C1c1cccc([N+](=O)[O-])c1 (stereo not shown) [nicardipine, 2-(N-benzyl-N-methylamino)-ethyl methyl 2,6-dimethyl-4-(m-nitrophenyl)-1,4-dihydropyridine-3,5-dicarboxylate]
- toxicity [2]: low toxicity
- solubility in biological fluids ([3]; pH of 5 to 8): poor solubility
- water solubility ([3]; water): unsatisfactory

SMILES: COC(=O)C1=C(C)NC(C)=C(C(=O)OCCN(C)Cc2ccccc2)C1c1cccc([N+](=O)[O-])c1 (stereo not shown) [nicardipine hydrochloride]
- solubility [4]: 1500 µg/mL
- dissolution, in words ([5]; gastric juice): dissolves quickly and completely
- % dissolution ([5]; gastric juice, pH 1.2, 10 min): 93.5%
- % dissolution ([5]; gastric juice, pH 1.2, 30 min): 100.2%
- % dissolution ([5]; intestinal juice, pH 6.0, 10 min): 50.2%
- % dissolution ([5]; intestinal juice, pH 6.0, 30 min): 58.7%
- % dissolution ([5]; intestinal juice, pH 6.5, 10 min): 35.5%
- % dissolution ([5]; intestinal juice, pH 6.5, 30 min): 39.0%
- % dissolution ([5]; intestinal juice, pH 7.4, 10 min): 1.0%
- % dissolution ([5]; intestinal juice, pH 7.4, 30 min): 1.3%
- mortality at 24 h [6, 8]: 20%
- mortality at 360 h [6, 8]: 20%
- mortality at 24 h [6, 9]: 0%
- mortality at 360 h [6, 9]: 0%
- mortality at 24 h [6, 10]: 40%
- mortality at 360 h [6, 10]: 40%
- mortality at 24 h [6, 11]: 30%
- mortality at 360 h [6, 11]: 40%
- mortality at 24 h [6, 12]: 30%
- mortality at 360 h [6, 12]: 50%
- mortality at 24 h [6, 13]: 40%
- mortality at 360 h [6, 13]: 70%
- mortality at 24 h [6, 14]: 40%
- mortality at 360 h [6, 14]: 70%
- mortality at 24 h [6, 15]: 90%
- mortality at 360 h [6, 15]: 90%
- mortality at 24 h [6, 16]: 90%
- mortality at 360 h [6, 16]: 100%
- LD50 at 360 h ([6]; F): 3640 mg/kg
- LD50 at 360 h ([6]; M): 3760 mg/kg
- LD50 after 15 days (mice; F): 3639 (2637-5022) mg/kg
- LD50 after 15 days (mice; M): 3756 (2815-5012) mg/kg
- recovery of animals (mice): recovered after 24 hours
- symptoms of poisoning (mice): dyspnoea and paresis
- mortality at 24 h [7, 17]: 40%
- mortality at 360 h [7, 17]: 40%
- mortality at 24 h [7, 18]: 40%
- mortality at 360 h [7, 18]: 40%
- mortality at 24 h [7, 19]: 0%
- mortality at 360 h [7, 19]: 0%
- mortality at 24 h [7, 20]: 60%
- mortality at 360 h [7, 20]: 60%
- mortality at 24 h [7, 21]: 10%
- mortality at 360 h [7, 21]: 20%
- mortality at 24 h [7, 22]: 44.4%
- mortality at 360 h [7, 22]: 66.6%
- mortality at 24 h [7, 23]: 80%
- mortality at 360 h [7, 23]: 80%
- mortality at 24 h [7, 24]: 80%
- mortality at 360 h [7, 24]: 80%
- LD50 at 360 h ([7]; F): 4790 mg/kg
- LD50 at 360 h ([7]; M): 2900 mg/kg
- LD50 after 15 days (rats; F): 4791 (4206-5458) mg/kg
- LD50 after 15 days (rats; M): 2900 (1635-5143) mg/kg
- recovery of animals (rats): recovered after 24 hours
- symptoms of poisoning (rats): dyspnoea and paresis
- onset of thermal decomposition (stable up to) [1]: about 200 °C
- solubility at higher pH values ([3]; higher pH values): very poor
- solubility at low pH values ([3]; low pH values): good
